Measured values as given in ChEMBL document CHEMBL1131715 (Bioorg Med Chem Lett, 1999).

Experiment: Inhibitory activity against zinc-dependent Glutamate Carboxypeptidase G

SMILES | Ki
CCCCP(O)(=S)N[C@@H](CCC(=O)O)C(=O)O (some centres not stated) | 264 nM
O=C(O)CC[C@H](NP(O)(=S)c1ccccc1)C(=O)O (some centres not stated) | 3240 nM
